Earlier results as cited in patent publication US20230210762A1, “TRANSDERMAL DRUG DELIVERY DEVICES HAVING PSILOCYBIN, LYSERGIC ACID DI[…] 3,4-METHYLENEDIOXYMETHA[…] MICROPROTRUSIONS” (Emergex USA Corporation, priority 2020, published 2023).
Like-named read-outs stand apart in the source and are kept apart here.

What was measured:
[1] = psilocybin administered orally to rats
[2] = not given; remark: listed apart in the source
[3] = not given; remark: listed apart in the source

Structure (SMILES) | time to maximum plasma levels [1] | total volume of psilocin absorbed from the digestive tract [1] | time until psilocin is detectable in plasma (after administration of the parent compound psilocybin) | ingested psilocybin absorbed through the stomach and intestine ([2]; oral, studies in animals) | detected in urine, time after ingestion ([2]; urine) | time within which most of the drug is eliminated ([2]; via urine, bile and feces) | absorbed psilocybin excreted in the bile and feces ([2]; within 24 hours) | absorbed psilocybin excreted into the urine ([2]; within 24 hours) | solubility in water [3] | half-life (administered intravenously) | half-life (administered orally) | bioavailability (psilocybin ingested orally)
CN(C)CCc1c[nH]c2cccc(O)c12 [psilocin] | approximately 90 minutes | approximately 50% | ≤ 20 min |  |  |  |  |  |  |  |  | 
CN(C)CCc1c[nH]c2cccc(OP(=O)(O)O)c12 [psilocybin, 3-[2-(demethylamino)ethyl-1H-indol-4-yl] dihydrogen phosphate] |  |  |  | about 50% | 7 days | ≤ 8 h | 15-20% | about 65% | soluble | 74.1 ± 19.6 min | 163 ± 64 min | about 50%
